Measurements as given in patent publication US20230091225A1, “Bifunctional chimeric heterocyclic compounds for targeted degradation of androgen receptors and use thereof” (HINOVA PHARMACEUTICALS INC., priority 2019, published 2023).
Read-outs that look alike come from different tables or passages of the source.

Target: T1, androgen receptor (AR) (Homo sapiens, UniProt P10275)
T1 sequence (P10275 1-920): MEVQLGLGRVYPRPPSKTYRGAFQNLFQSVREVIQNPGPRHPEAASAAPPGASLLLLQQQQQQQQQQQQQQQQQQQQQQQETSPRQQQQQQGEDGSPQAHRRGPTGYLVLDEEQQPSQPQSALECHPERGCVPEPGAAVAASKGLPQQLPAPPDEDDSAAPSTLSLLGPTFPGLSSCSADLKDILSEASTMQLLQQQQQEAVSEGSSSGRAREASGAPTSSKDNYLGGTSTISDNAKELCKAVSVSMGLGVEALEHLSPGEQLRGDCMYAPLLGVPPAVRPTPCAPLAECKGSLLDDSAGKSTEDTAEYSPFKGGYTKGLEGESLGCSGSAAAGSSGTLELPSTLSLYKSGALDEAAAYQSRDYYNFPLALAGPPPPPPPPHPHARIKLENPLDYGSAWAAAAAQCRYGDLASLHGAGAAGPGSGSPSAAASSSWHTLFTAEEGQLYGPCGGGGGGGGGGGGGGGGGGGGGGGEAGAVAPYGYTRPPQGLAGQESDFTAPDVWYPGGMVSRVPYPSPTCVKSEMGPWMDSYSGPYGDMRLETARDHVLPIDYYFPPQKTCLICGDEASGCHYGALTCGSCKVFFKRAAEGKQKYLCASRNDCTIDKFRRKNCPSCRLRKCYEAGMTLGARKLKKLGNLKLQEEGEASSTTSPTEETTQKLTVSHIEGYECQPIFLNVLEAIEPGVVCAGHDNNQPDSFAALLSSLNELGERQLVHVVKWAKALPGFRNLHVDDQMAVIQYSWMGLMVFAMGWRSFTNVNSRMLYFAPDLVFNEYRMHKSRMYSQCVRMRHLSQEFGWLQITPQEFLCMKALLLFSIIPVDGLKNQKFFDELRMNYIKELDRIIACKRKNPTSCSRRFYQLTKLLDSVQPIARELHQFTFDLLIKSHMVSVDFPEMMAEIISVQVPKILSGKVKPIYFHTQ
Experiment: Degradation of androgen receptor (AR) protein in VCaP cells by ELISA
Assay type: cell-based
Conditions: for DC50: read-out: DC50; for Dmax: VCaP, read-out: Dmax (%)

[1] = AR degradation, VCaP cells, 16 h, ELISA, Table 3-1

For N#Cc1ccc(OC2CCC(NC(=O)c3ccc(N4CCC5(CC4)CN(CC4CCN(c6cc7c(cc6F)C(=O)N(C6CCC(=O)NC6=O)C7=O)CC4)C5)nn3)CC2)cc1C(F)(F)F (centres unmarked) [Compound 285, N-((1r,4r) 4-(4-cyano-3-(trifluoromethyl)phenoxy)cyclohexyl)-6-(2-((1-(2,6-dioxopiperidin-3-yl)-6-fluoro-1,3-dioxoisoindolin-5-yl)piperidine-4-yl)methyl)-2,7-diazaspiro [3.5] nonan-7-yl)pyridazine-3-formamide], the “Dmax (%)” value was “++++ (key: A: >80%; B: 79%-50%; C: 49%-25%; D: <25%)” and the DC50 was < 10 nM.
In the case of N#Cc1ccc(O[C@H]2CC[C@H](NC(=O)c3ccc(N4CCN(C[C@@H]5[C@H]6CN(c7cc8c(cc7F)C(=O)N(C7CCC(=O)NC7=O)C8=O)C[C@@H]56)CC4)cn3)CC2)cc1Cl (some centres unmarked) [Compound 286], the DC50 [1] is reported as 10 to 100 nM and the Dmax [1] is reported as 60 to 80%.
For N#Cc1ccc(O[C@H]2CC[C@H](NC(=O)c3cnc(N4CCC(N5CCC6(CC5)CN(c5cc7c(cc5F)C(=O)N(C5CCC(=O)NC5=O)C7=O)C6)CC4)cn3)CC2)cc1Cl (some centres unmarked) [Compound 287, N-((1r,4r)-4-(3-chloro-4-cyanophenoxy)cyclohexyl)-5-(4-(2-(2-(2,6-dioxopiperidin-3-yl)-6-fluoro-1,3-dioxoisoindolin-5-yl)-2,7-diazaspiro[3.5]nonan-7-yl)piperidin-1-yl)pyrazine-2-carboxamide], the DC50 [1] was < 10 nM and the Dmax [1] was > 80%.
For CC1(C)[C@H](Oc2ccc(C#N)c(Cl)c2)C(C)(C)[C@H]1N1Cc2nc(C#CC3CN(C4CN(c5cc6c(cc5F)C(=O)N(C5CCC(=O)NC5=O)C6=O)C4)C3)ccc2C1=O (some centres unmarked) [Compound 322], the DC50 [1] was < 10 nM and the Dmax [1] was 60 to 80%.
CC1(C)[C@H](Oc2ccc(C#N)c(Cl)c2)C(C)(C)[C@H]1N1Cc2nc(C#C[C@H]3CC[C@H](N4CCN(c5ccc6c(c5)C(=O)N(C5CCC(=O)NC5=O)C6=O)CC4)CC3)ccc2C1=O (some centres unmarked) [Compound 325] was tested, and the DC50 [1] was < 10 nM and the Dmax [1] was > 80%.
CC1(C)[C@H](Oc2ccc(C#N)c(Cl)c2)C(C)(C)[C@H]1N1Cc2nc(C#CC3CCC(N4CC5CN(c6cc7c(cc6F)C(=O)N(C6CCC(=O)NC6=O)C7=O)CC5C4)CC3)ccc2C1=O (some centres unmarked) [Compound 340] was tested, and the DC50 [1] was < 10 nM and the Dmax [1] was > 80%.
Molecule CC1(C)[C@H](Oc2ccc(C#N)c(Cl)c2)C(C)(C)[C@H]1N1Cc2nc(C#CC3CCC(N4CC5(CN(c6cc7c(cc6F)C(=O)N(C6CCC(=O)NC6=O)C7=O)C5)C4)CC3)ccc2C1=O (some centres unmarked) [Compound 341] has a DC50 [1] of 10 to 100 nM and a Dmax [1] of 60 to 80%.
With CC1(C)[C@H](Oc2ccc(C#N)c(Cl)c2)C(C)(C)[C@H]1N1Cc2nc(C#CC3CCC(N4CC5CC4CN5c4cc5c(cc4F)C(=O)N(C4CCC(=O)NC4=O)C5=O)CC3)ccc2C1=O (some centres unmarked) [Compound 343] the DC50 [1] was > 300 nM and the Dmax [1] was 40 to 60%.
For CC1(C)C(Oc2ccc(C#N)c(Cl)c2)C(C)(C)C1N1Cc2nc(C#CC3CCC(N4CC5CN(c6ccc7c(c6)C(=O)N([C@@H]6CCC(=O)NC6=O)C7=O)CC5C4)CC3)ccc2C1=O (some centres unmarked) [Compound 349, 2-Chloro-4-((1r,3r)-3-(2-((4-(5-(2-(2,6-dioxopiperidin-3-yl)-1,3-dioxoisoindolin-5-yl)hexahydropyrrolo[3,4-c]pyrrol-2(1H)-yl)cyclohexyl)ethynyl)-5-oxo-5,7-dihydro-6H-pyrrolo[3,4-b]pyridin-6-yl)-2,2,4,4-tetramethylcyclobutoxy)benzonitrile], the “Dmax (%)” value [1] was “++++ (>80%)” and the DC50 was 10 to 100 nM.
In the case of CC1(C)[C@H](Oc2ccc(C#N)c(Cl)c2)C(C)(C)[C@H]1N1Cc2nc(C#CC3CCC(N4CC5(CN(c6ccc7c(c6)C(=O)N([C@@H]6CCC(=O)NC6=O)C7=O)C5)C4)CC3)ccc2C1=O (some centres unmarked) [Compound 350, 2-Chloro-4-((1r,3r)-3-(2-((4-(6-(2-(2,6-dioxopiperidin-3-yl)-1,3-dioxoisoindolin-5-yl)-2,6-diazaspiro[3.3]heptane-2-yl)cyclohexyl)ethynyl)-5-oxo-5,7-dihydro-6H-pyrrolo[3,4-b]pyridin-6-yl)-2,2,4,4-tetramethylcyclobutoxy) benzonitrile], the “Dmax (%)” value is reported as “++ (key: ++++: >80%; +++: 80%-60%; ++: 60%-40%; +: <40%)” and the DC50 is reported as 100 to 300 nM.
